“Also recorded” adds a separate entry of the source.
Key:
[1] = tested on: RPMI8226 cells; test: Cell viability of RPMI8226 cells after carfilzomib with or without 4H10; format: cell-based; details: carfilzomib, 24 h, compared to DMSO
Protocol: (§1) (top) Proteasome activity of IMR-90 hiPSC-CMs was measured after the cells were treated with CFZ with or without 4H10 for 24 hours. (bottom, right, left) Proteasome activity and cell viability of RPMI8226 cells (cancer cells) were measured after the cells were treated with CFZ with or without 4H10 for 24 hours.
(§2) Experiments were designed to determine the effects of carfilzomib and 4H10 on proteasome activity and cell viability of RPMI8226 cell line, which has been investigated for the efficacy tests of carfilzomib in […].

[2] = tested on: proteasome; test: Proteasome activity in hiPSC-CMs after carfilzomib with or without 4H10; format: cell-based, human; details: carfilzomib, 24 h, IMR-90 hiPSC-CMs, compared with DMSO
Protocol: as §1
The proteasome, responsible for the regulated degradation of proteins, is a key cellular component targeted by carfilzomib as part of its mechanism of action in cancer therapy. Therefore, in addition to validation of cardioprotective effects of 4H10 on cell viability and mitochondrial function, it is crucial to examine if 4H10 compromises the proteasome inhibition efficacy of carfilzomib.

[3] = tested on: hiPSC-CMs; test: Intracellular oxidative stress (ROS) of carfilzomib-treated hiPSC-CMs, DCFDA/H2DCFDA assay; format: cell-based, human; details: carfilzomib 5 μM alone, 24 h, SCVI hiPSC-CMs
Protocol: The quantification of oxidative stress was performed using DCFDA staining of SCVI hiPSC-CMs treated with Cfz with or without 4H10 for 24 hours.
The induction of oxidative stress is a crucial mechanism through which proteasome inhibitors induce apoptosis. To investigate if 4H10 could alleviate carfilzomib-induced increase of oxidative stress in cardiomyocytes, hiPSC-CMs were exposed to carfilzomib at 5 μM alone or together with 4H10 at various concentrations for 24 h. The production of cellular reactive oxygen species (ROS) was then measured using DCFDA/H2DCFDA assay kit.

[4] = tested on: proteasome; test: Proteasome activity in RPMI8226 cells after carfilzomib with or without 4H10; format: cell-based; details: carfilzomib, 24 h, compared to DMSO
Protocol: as §1, §2

[5] = tested on: hiPSC-CMs; details: carfilzomib; Forghani et al., 2021; cited from earlier work
[6] = tested on: patients; details: among the proteosome inhibitors; cited from earlier work
[7] = carfilzomib, serum; read-out: maximum (or peak) serum concentration, Cmax; cited from earlier work
[8] = tested on: hiPSC-CMs; test: Cell viability of hiPSC-CMs treated with carfilzomib with or without 4H10 (CellTiter-Blue); format: cell-based, human; details: carfilzomib 5 μM alone, 24 h, IMR-90 hiPSC-CMs, compared with DMSO
Protocol: Cell viability was analyzed after IMR-90 hiPSC-CMs were treated with carfilzomib (CFZ) with or without 4H10 for 24 hours. (n=5 cultures).
(§3) A human induced pluripotent cell line (hiPSC line IMR90™, WiCell Research Institute) was fed daily on Matrigel™-coated plates with a defined medium for hiPSC culture, mTeSR1 medium. For CM differentiation, hiPSCs were induced using a growth factor-driven differentiation protocol as reported in Jha et al. Efficient differentiation of cardiomyocytes from human pluripotent stem cells with growth factors. Methods Mol Biol, 2015, 1299, 115-131. On the day of induction (day 0), medium was replaced with RPMI 1640 medium supplemented with 2% B27 minus insulin (a cell culture supplement) containing 100 ng/ml activin A. After induction for 24 h, the medium was replaced with fresh RPMI supplemented with 2% B27 minus insulin containing 10 ng/ml BMP4. From day 4 of differentiation, the medium was replaced with RPMI supplemented with 2% B27. On day 5, the cells were dissociated and reseeded into AggreWell400™ plates to acquire cardiac spheres. After 24 h, the cardiac spheres formed were collected and transferred to low-adhesion dishes for suspension culture. The medium was changed every other day. Cardiac spheres typically started beating spontaneously by day 7 to 9.
Cardiomyocytes derived from human pluripotent stem cells (hiPSC-CMs) were provide a new platform for the studies of cancer drug-induced side effects and therapies. Using these cells, lead molecules were identified indicating protective properties on cardiomyocytes from the toxic effect of chemotherapy agents and ethanol (EtOH). […] Oxidative stress is a common molecular mechanism for cardiotoxicity induced by chemotherapy including proteosome inhibitors.
Consistently, treatment of hiPSC-CMs induced cell death and cytotoxicity. To examine if 4H10 could protect cardiomyocytes from carfilzomib-induced cytotoxicity, hiPSC-CMs were treated with carfilzomib at 5 μM alone or together with 4H10 at various concentrations for 24 h and then examined cell viability using the CellTiter-Blue Cell Viability Assay. Cells treated with DMSO (vehicle) were used as a control.

[9] = tested on: hiPSC-CMs; test: MitoTracker Red staining (mitochondrial content and activity) of carfilzomib-treated hiPSC-CMs, high-content imaging; format: cell-based, human; details: carfilzomib alone, 24 h, IMR-90 hiPSC-CMs
Protocol: MitoTracker™ Red staining was performed in IMR-90 hiPSC-CMs treated with CFZ with or without 4H10 for 24 hours.
as §3
Mitochondria play a crucial role in energy production, cellular metabolism, and the regulation of cell death. Experiments indicate carfilzomib induces mitochondrial dysfunction in hiPSC-CMs. To assess the potential mitigating effects of 4H10 on carfilzomib-induced mitochondrial dysfunction, hiPSC-CMs were treated with carfilzomib alone or co-treated with 4H10 at various concentrations. Mitochondria were then visualized using MitoTracker™ Red dyes, which can accumulate in active mitochondria and allow for the measurement of mitochondrial content and activity in live cells.

[10] = tested on: hiPSC-CMs; test: Effects of chemotherapeutic agents on function of hiPSC-CMs; format: cell-based, human; details: carfilzomib treatment

- Ca^2+ handling of hiPSC-CMs [10]: negatively affects
- contractility of hiPSC-CMs [10]: negatively affects
- mitochondrial function of hiPSC-CMs [10]: negatively affects
- traction forces of hiPSC-CMs [10]: negatively affects
Structure (SMILES): CC(C)C[C@H](NC(=O)[C@H](CCc1ccccc1)NC(=O)CN1CCOCC1)C(=O)N[C@@H](Cc1ccccc1)C(=O)N[C@@H](CC(C)C)C(=O)[C@@]1(C)CO1 [carfilzomib]
- viability of RPMI8226 cells [1]: significantly decreased the viability
- cellular proteasome activity [2]: significant decrease in cellular proteasome activity
- DCFDA fluorescence intensity (oxidative stress) [3]: significant increase in DCFDA fluorescence intensity
- proteasome activity in RPMI8226 cells [4]: suppressed
- molecular and functional alterations of hiPSC-CMs [5]: causes molecular and functional alterations
- cardiotoxicity in clinic [6]: highest cardiotoxicity in clinic
- Cmax [7]: 5.88 µM
- cell viability (cytotoxicity) after carfilzomib [8]: caused cytotoxicity; also recorded: significant decrease in cell viability
- mitochondrial mass and activity (MitoTracker Red fluorescence intensity) [9]: reduction in mitochondrial mass and activity

Source: patent publication US20260294845A1, “Uses of Adrenalone to Manage Cardiotoxicity or Cardiovascular Disorders” (Emory University, priority 2023, published 2026)
